Measurements published in patent US12171230B2, “Herbicidal compositions” (Bayer Aktiengesellschaft, priority 2018, dated 2024).
Several values for one entry are separate records, joined by “and”; a condition that tells them apart may be missing. Equal entries are not always repeated.

What was measured:
[1] = tested on: Centaurea cyano; experiment: Post-emergence herbicidal action against Centaurea cyano; format: in vivo
In short: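 Formulations (spray powders or emulsion concentrates) applied at various doses onto foliage using 300 to 800 l/ha water; plants treated at three-leaf stage, three weeks post-sowing in sandy loam under greenhouse conditions.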

[2] = tested on: Veronica hederifolia; experiment: Post-emergence herbicidal action against Veronica hederifolia; format: in vivo; conditions: 28 DAT; 1 g a.i./ha

Compound: C=C[C@]1(C(=O)N[C@H]2CO[C@@H](C(=O)OC)C2)CC(c2cc(F)cc(F)c2)=NO1 (relative stereo) [Compound A3, methyl rel-(2R,4R)-4-[[(5S)-3-(3,5-difluorophenyl)-5-vinyl-4H-isoxazole-5-carbonyl]amino]tetrahydrofuran-2-carboxylate]
- Herbicidal action 14 DAT against Centaurea cyanus ([1]; 1 g of a.i./ha): 20%
- Herbicidal action 28 DAT against Centaurea cyanus ([1]; 1 g of a.i./ha): 10% and 0%
- Herbicidal action in [%] 14 DAT against Centaurea cyanus ([1]; 1 g of a.i./ha): 30%
- Herbicidal action in [%] 28 DAT against Centaurea cyanus ([1]; 1 g of a.i./ha): 10%
- Herbicidal action 14 DAT against Centaurea cyanus ([1]; 4 g of a.i./ha): 50%
- Herbicidal action 28 DAT against Centaurea cyanus ([1]; 4 g of a.i./ha): 20%
- Herbicidal action in [%] 14 DAT against Centaurea cyanus ([1]; 4 g of a.i./ha): 50%
- Herbicidal action in [%] 28 DAT against Centaurea cyanus ([1]; 4 g of a.i./ha): 50%
- Herbicidal action against Centaurea cyanus ([1]; 14 DAT, 16 g of a.i./ha): 80%
- Herbicidal action in [%] 14 DAT against Centaurea cyanus ([1]; 16 g of a.i./ha): 70%
- Herbicidal action in [%] 28 DAT against Centaurea cyanus ([1]; 16 g of a.i./ha): 40% and 70%
- Herbicidal action in [%] 28 DAT against Centaurea cyano ([1]; 16 g of a.i./ha, post-emergence): 70%
- Herbicidal action against Centaurea cyanus ([1]; 28 DAT, 16 g of a.i./ha): 40%
- Herbicidal action 28 DAT against Centaurea cyanus ([1]; (Z61) post-emergence, g of a.i./ha: 1, 270, 90, 1 + 270, 1 + 90): 0%
- Herbicidal action [2]: 30%
